From patent publication US20170087188A1, “WNT INDUCED MOTILITY AND ENHANCED ENGRAFTMENT OF CELLS” (OTTAWA HOSPITAL RESEARCH INSTITUTE, priority 2014, published 2017)
“Also recorded” adds a separate entry of the source.

System: mouse primary myoblasts
Experiment: Scratch migration assay, mouse primary myoblasts
Format: cell-based
Settings: primary myoblasts; MDC at 50 μm
Description: Cellular polarization is indicative of increased motility (de Forges et al., 2012). Scratch assays were used to test whether Wnt7a and Fzd7 polarization affect cell motility. To exclude effects on the localization of cells arising from altered rates of proliferation, cells were treated with Mitomycin-C.
Fzd7 deficient cells migrated 59% less compared to heterozygous myoblasts and expression of Fzd7-Flag in Fzd7 knockout myoblasts restored migration to normal levels (FIG. 2D). […] To investigate whether the stimulation of myoblast migration is dose dependent, different concentrations of Wnt7a and Wnt3a were tested for their effect on migration.
Following plasmid transfection or application of Wnts (R&D Systems), the cells were treated with Mitomycin-C for 2 h (50 μg/mL). Subsequently, the monolayer of cells was scraped in a straight line. The plates were then extensively washed with culture medium and incubated for 24 h before analysis. Analysis was performed using DAPI staining after matching the reference points and enumeration of DAPI-stained nuclei in the scar was performed. Unless otherwise indicated, Wnt7a and Wnt3a were used at a concentration of 100 ng/mL in scratch assays. Monodansylcadaverine (MDC, 30432, Sigma) was used in scratch assays at a concentration of 50 μm.

Structure (SMILES): CN(C)c1cccc2c(S(=O)(=O)NCCCCCN)cccc12 [monodansylcadaverine, reference compound]
- effect on Wnt7a mediated migration in scratch assays: prevents Wnt7a induced migration; also recorded: prevented Wnt7a mediated migration
